Measured values published in patent US8552018B2, “Substituted tricyclic compounds as protein kinase inhibitors” (Arizona Board of Regents on behalf of the University of …, priority 2003, dated 2013).

How the values were obtained:
Type in all cases: cell-based
GIST882 cell line [1] = test: Cancer cell cytotoxicity assay (sulforhodamine B); conditions: for IC50: Homo sapiens, 96 h, GIST882, 4 days, read-out: IC50 c-kit GIST882
Procedure: To validate the hypothesis that the designed c-kit/PDGFR tyrosine kinase inhibitors mediate GIST882 cell killing and PDGFR-mediated cell killing of pancreatic cancer cell lines (CFPAC-1, PANC-1 and MIA PaCa-2), an in vitro cytotoxicity assay was performed. The GIST882 cell line used in this study has a c-kit gain-of-function mutation (K642E). […] First the cells were cultured. GIST882 cells were provided by Dr. Jonathan A. Fletcher (Dana-Farber Cancer Institute, Boston, Mass.). PANC-1 and MIAPaCa-2 cells were provided by Dr. Daniel Von Hoff (Arizona Cancer Center, Tucson, Ariz.). […] All the cell lines were incubated in a humidified incubator at 37° C. with 5% CO2 atmosphere.
(§1) After incubation for 4 days at 37° C. in a humidified incubator, the cells were fixed with 10% Trichloroacetic acid solution (Catalog No. 490-10, Sigma). Subsequently, they were labeled with 0.04% Sulforhodamine B (S9012, Sigma) in 1% acetic acid. After multiple washes to remove excess dye, 100 μl of 50 mM Tris solution was added to each well in order to dissolve the dye. The absorbance of each well was read on a plate reader (Wallac Vector^2, PerkinElmer) at the wavelength of 570 nm. Data were expressed as the percentage of survival of control calculated from the absorbance corrected for background absorbance. The surviving percent of cells was determined by dividing the mean absorbance values of the […] by the mean absorbance values of the control and multiplying by 100.

MIAPaCa-2 cells = test: Cancer cell cytotoxicity assay (sulforhodamine B); conditions: Homo sapiens, MIA PaCa-2, 96 h; MIAPaCa-2, 4 days; read-out: IC50 PDGFR MIAPaCa
Procedure: (§2) To validate the hypothesis that the designed c-kit/PDGFR tyrosine kinase inhibitors mediate GIST882 cell killing and PDGFR-mediated cell killing of pancreatic cancer cell lines (CFPAC-1, PANC-1 and MIA PaCa-2), an in vitro cytotoxicity assay was performed. The GIST882 cell line used in this study has a c-kit gain-of-function mutation (K642E). The assay utilized the Cell Titer 965 Non-Radioactive Cell Proliferation Assay (Promega Corp., Madison, Wis.). First the cells were cultured. GIST882 cells were provided by Dr. Jonathan A. Fletcher (Dana-Farber Cancer Institute, Boston, Mass.). PANC-1 and MIAPaCa-2 cells were provided by Dr. Daniel Von Hoff (Arizona Cancer Center, Tucson, Ariz.). GIST882 cells were cultured in RPMI 1640 medium (Cat #21870-076, Invitrogen Corporation) supplemented with 300 mg/L L-glutamine, 100 unit/ml penicillin, 100 μg/ml streptomycin and 15% fetal bovine serum. PANC-1 and MIAPaCa-2 cells were maintained in RPMI 1640 medium (cat #10-040, Mediatech, Inc.) supplemented with 100 unit/ml penicillin, 100 μg/ml streptomycin and 10% fetal bovine serum. All the cell lines were incubated in a humidified incubator at 37° C. with 5% CO2 atmosphere.
as §1, with “Cells were plated at a density of 2000 to 10000 cells per well, depending on their growth rate, in 0.1 mL medium on day 0 in 96-well Falcon microtiter plates (#3072, Becton-Dickinson Labware, Lincoln Park, N.J.). On day 1, 10 μL of serial dilutions of the individual compounds were added to the plates in replicates of 4. After incubation” for “After incubation”

PANC-1 cells = test: Cancer cell cytotoxicity assay (sulforhodamine B); conditions: Homo sapiens, 96 h; PANC-1, 4 days; read-out: IC50 PDGFR PANC-1
Procedure: as §2
as §1, with “Cells were plated at a density of 2000 to 10000 cells per well, depending on their growth rate, in 0.1 mL medium on day 0 in 96-well Falcon microtiter plates (#3072, Becton-Dickinson Labware, Lincoln Park, N.J.). On day 1, 10 μL of serial dilutions of the individual compounds were added to the plates in replicates of 4. After incubation” for “After incubation”

GIST882 cell line [2] = test: GIST882 cell growth assay (Cell-Titer-Glo); conditions: for IC50: Homo sapiens, GIST882, 96 hours
Procedure: (§3) Briefly, cells are seeded into 96-well, tissue-culture treated, opaque white plates (Thermo Electron, Vantaa, Finland), at between 5000 and 7500 cells per well, depending on the speed of cell proliferation, in 100 μl of appropriate growth medium (determined by the ATCC). Cells are then exposed to the appropriate concentration of drug or an equal amount of DMSO (drug diluent) and allowed to grow in its presence for 96 hours. Following this, 100 μl of Cell-Titer-Glo reagent (Promega, Inc., Madison, Wis.) is added to each well. Plates are then shaken for 2 minutes at room temperature to allow for cell lysis and incubated for 10 minutes to stabilize the luminescent signal. Similar to the Kinase-Glo assay reagent, this reagent contains both luciferase enzyme and its substrate luciferin. Luciferase, activated by ATP in the cell lysate, catalyzes the conversion of luciferin to oxyluciferin, a reaction which produces light. The amount of light produced is proportionate to the amount of ATP in the cell lysate, which is itself proportional to cell number and gives an index of cellular proliferation.
as §3, with “Various compounds of the invention, including (IV-1-3) (also referred to as HPK16), (III-1-3) (also referred to as HPK56), (III-1-4) (also referred to as HPK57), (III-1-5) (also referred to as HPK59), and (II-2-7) (also referred to as HPK61) were tested for activity against GIST tumor cells using the GIST882 cell line. Briefly,” for “Briefly,”

## COc1cc2ncnc(N3CCN(C(=S)Nc4ccc(S(=O)(=O)Nc5ncccn5)cc4)CC3)c2cc1OC [HPK16, 4-(6,7-Dimethoxy-quinazolin-4-yl)-piperazine-1-carbothioic acid [4-(pyrimidin-2-ylsulfamoly)-phenyl]-amide]
GIST882 cell line [1]
  IC50: 50 µM
MIAPaCa-2 cells
  IC50: > 50 µM
PANC-1 cells
  IC50: > 50 µM
GIST882 cell line [2]
  IC50: 50 µM

## S=C(NCc1ccc2c(c1)OCO2)N1CCN(c2ncnc3c2oc2ccccc23)CC1 [HPK56, 4-Benzo[4,5]furo[3,2-d]pyrimidin-4-yl-piperazine-1-carbothioic acid (benzo[1,3]dioxol-5-ylmethyl)-amide]
GIST882 cell line [1]; GIST882, day 4
  cells alive at day 4: 5%
GIST882 cell line [1]
  IC50: 1.6 µM
MIAPaCa-2 cells
  IC50: 2.1 µM
PANC-1 cells
  IC50: 3 µM
GIST882 cell line [2]; FIG. 29, 96 hours
  inhibitory activity in GIST882 cell line (in words): highest inhibitory activity
GIST882 cell line [2]
  IC50: 1.6 µM

## COc1cc2[nH]c3ncnc(N4CCN(C(=S)Nc5ccc(S(=O)(=O)Nc6ncccn6)cc5)CC4)c3c2cc1OC [HPK62, 4-(6,7-Dimethoxy-9H-1,3,9-triaza-fluoren-4-yl)-piperazine-1-carbothioic acid [4-(pyrimidin-2-ylsulfamoyl)-phenyl]-amide]
GIST882 cell line [1]
  IC50: 28 µM
MIAPaCa-2 cells
  IC50: > 50 µM
PANC-1 cells
  IC50: > 50 µM
GIST882 cell line [2]
  IC50: 28 µM
